melting point | SMILES
249 to 251 °C | O=C(O)c1cc(Cl)n2cnnc2c1
66 to 68 °C | CC(Cc1ccccc1C(=O)O)c1cccs1 (stereo not given)
238 to 241 °C | Cc1oc2cc(NS(C)(=O)=O)c(Oc3ccccc3)cc2c(=O)c1C(=O)O
202 to 204 °C | O=C(O)c1ccc2c(c1)Sc1ccccc1CC2O (stereo not given)
176 to 178 °C | CC(=O)Nc1cccc(-c2cc3nc(-c4cccnc4N)n(-c4cccc(-c5cc(C)nc6ccc(NC(C)=O)cc56)c4)c3nc2-c2cccnc2)c1
167 to 169 °C | CCc1noc2cc(-c3ccccc3)n(C)c(=O)c12
> 260 °C | CCOC(=O)c1cnc2ccc(CC)cc2c1O
> 300 °C | Cc1ccc2c(c1)C(c1ncnc3c1cnn3C1CCCC1)C(=O)N2 (stereo not given)
246 °C | CCOC(=O)c1cc(Br)cc2c(=O)cc(-c3cccc(OCc4ncc5ccccc5n4)c3)oc12
152 to 153 °C | CS(=O)(=O)c1ccc(-c2cc(C(F)(F)F)nn2-c2ccc(C#N)cc2)cc1F
81 to 82 °C | COc1ccc(Nc2ccc(C)cc2)cc1
83 to 85 °C | CCCCc1nn(-c2ccccc2C(F)(F)F)c(=O)n1Cc1ccc(-c2ccccc2S(=O)(=O)NC(=O)OC(C)(C)C)cc1F
212 to 214 °C | COc1cccc(Cc2nc3n(-c4c(Cl)cc(C=O)cc4Cl)[nH]c(C(C)C)c-3c(=O)n2)c1
193 to 195 °C | CS(=O)(=O)c1ccc(-n2nc(C(F)F)cc2-c2nc3cccc(F)c3s2)cc1
213 to 216 °C | COc1cccc(NS(=O)(=O)c2ccc(NC3=C(Cl)C(=O)c4ccccc4C3=O)cc2)c1
118 to 120 °C | CCCC(=O)c1cnc2ccsc2c1Nc1ccccc1C(C)C
170 to 172 °C | Cc1nn(C)c2c(-c3ccc(OC(F)(F)F)cc3)nc(-c3ccc(F)cc3)nc12
103 °C | CC#Cc1ccc(-c2ccc(-c3ccc(CCCCC)cc3)c(F)c2F)cc1
100 to 102 °C | CCOC(=O)c1ccc(-c2ccsc2)nc1C(=O)OCC
242 °C | Cc1c(NC(=O)c2ccc(NC(=O)c3ccccc3)cc2)ccc2cc(CN3CCCC3)cnc12
188 to 190 °C | COc1cc(OC)nc(C2(O)OC(=O)c3c(Cl)cccc32)n1 (stereo not given)
227 °C | COc1ccc(OCC(O)CN2CCC(Nc3nc4c(C)cccc4n3Cc3nc(C)ccc3O)CC2)cc1 (stereo not given)
157 °C | CC(C)c1ccc(NC(=O)C2CCCc3c(OCc4ccccc4)cccc32)cn1 (stereo not given)
68 to 69 °C | Cc1cc(C)cc(OCC(=O)c2ccc(C(C)C)cc2)c1

melting point | SMILES
158 to 160 °C | CC(=O)N[C@@H](CO)C(=O)NCc1ccc(N)cc1
155 to 156 °C | Cc1cn(C)c2c1C(=O)CC(c1ccccc1)C2 (stereo not given)
88 to 89.5 °C | O=C1C=C(CCCCC#CCCCC#CCO)C(=O)c2ccccc21
265 to 270 °C | CCOC(=O)c1c[nH]c2ccc(Cc3ccccc3)cc2c1=O
193 to 196 °C | COc1cc(NC(=O)NS(=O)(=O)c2ccccc2Cl)nc(OC)n1
147 to 149 °C | COc1nc2ccccc2nc1NC(=O)N1CCN(c2ccccc2)CC1
206 to 208 °C | COc1cc(Nc2c(-c3ccc(S(C)(=O)=O)cc3)cnn(CC(F)(F)F)c2=O)cc(C(F)(F)F)c1
182 to 184 °C | COc1nc(C)cnc1NS(=O)(=O)c1cccnc1-c1ccc(OC(C)(C)CO)cc1
175 to 179 °C | c1ccc2c(c1)ncc1cncn12
193 °C | Cc1nc2n(c(=O)c1CCN1CCN(c3noc4cc(F)ccc34)CC1)CCS2
112 to 114 °C | CC(C)(O)CCCCCc1ccc(C=Cc2ccc(CO)c(CO)c2)cc1
49.9 to 53.4 °C | CCOC(=O)C=Cc1ccc(NCCOC)cc1
52 to 53 °C | CCCCCCCCCCCCCCc1ccc(OCC2COC(C)(C)O2)cc1 (stereo not given)
142 to 144 °C | OCC1Cn2c(nc3ccccc32)-c2ccccc2O1 (stereo not given)
110 to 113 °C | Cc1ccc(CCN2CCC[C@H](C(C#N)(c3ccccc3)c3ccccc3)C2)cc1
94 to 95 °C | COc1ccc(/C=C(\C#N)c2ccccc2Cl)cc1OC1CCCC1
117 to 119 °C | Cc1ccccc1[C@@H](CCC(=O)O)Oc1cc(OCc2cccnc2)ccc1[N+](=O)[O-]
128 to 130 °C | NC1([C@@H]2CCN(c3ccc4c(=O)c(C(=O)O)cn([C@@H]5C[C@@H]5F)c4c3Cl)C2)CC1
117 to 119 °C | CCc1c(-c2ccccc2)nc(C(C)C)c(C#CI)c1-c1ccc(F)cc1
192 to 194 °C | CC(C)c1cccc(C(C)C)c1NC(=O)CC1=C(c2ccccc2)c2cc(Cl)ccc2N(C)C1
113 °C | COc1ccc(-c2c(C(=O)Cl)sc3ccccc23)cc1OC
134 to 135 °C | COc1cc(CCCC2OC(=O)NC2=O)ccc1OCc1coc(-c2ccccc2)n1 (stereo not given)
154 to 156 °C | COc1nc(NC(=O)NS(=O)(=O)c2cscc2C)nc(OC)n1
132 to 134 °C | C/C(NC1CCCCCC1)=C(\C#N)C(N)=S

melting point | SMILES
132 to 134 °C | O=Cc1c(-c2ccc(F)cc2)n(CCF)c(=O)c2ccccc12
152 to 154 °C | CC(=O)CCc1ccc(C(N)=O)cc1
154 to 157 °C | Cc1cc(SCc2ccnc3oc(-c4ccc(C(F)(F)F)cc4)nc23)ccc1OCC(=O)O
116 °C | COc1nc(OC)c(C=CC(C)=O)c(N(C)C)n1
96 to 99 °C | Cc1ccc(S(=O)(=O)OCC2CNC(=O)O2)cc1 (stereo not given)
135 to 136 °C | COC(=O)C(=O)c1ccc(OCCOc2ccc3ccccc3c2)cc1F
143 to 144 °C | Cc1cc2ncnn2nc1OCCC(C)(C)CCS(N)(=O)=O
141 to 142 °C | Cc1c(N)ccc2[nH]cc(CCCO)c12
131 °C | COc1ccc(-c2c(SCc3ccccc3)oc3cc(OCc4ccccc4)ccc3c2=O)cc1
45 to 48 °C | Cc1ccc(-c2nc3ccc(C(C)(C)CN)cc3[nH]2)cc1
150 to 153 °C | CCOCc1nc2c(N)nc3c(c2n1CC(C)(C)OCCS(C)(=O)=O)CCCC3
173 to 174 °C | O=C(O)C1=CC(CF)(CF)Oc2ccc(C(F)(F)C(F)(F)F)cc21
202 to 203 °C | CCn1c(=O)c2c(nc(/C=C/c3cccc(OC)c3OC(C)=O)n2C)n(CC)c1=O
114 to 117 °C | CCOC(=O)C(=O)c1cc(F)cc2cccnc12
120 to 121 °C | COc1cc(CO)ccc1C12CC3CC(CC(C3)C1)C2
163 to 164 °C | C=C(C(=O)c1ccc(C(=O)O)cc1)c1ccc(OC)c(-c2cccs2)c1
110 to 111 °C | CC(C)n1c(=O)n(CC2CO2)c2cc(-c3ncc(C(F)(F)F)cc3Cl)ccc21 (stereo not given)
145 to 147 °C | COc1ccc2[nH]c(SCc3nccc(N4CCCCC4)n3)nc2c1
211 to 212 °C | CNC1=NS(=O)N=C1NCCCNc1ncc(Br)cc1C (stereo not given)
165 to 167 °C | COc1ccc(C(=O)Nc2ccc(C(C)(C)c3noc(COc4ccccc4)n3)cc2)cc1OC
149 to 151 °C | COc1cc(C=C(C=O)C(C=O)=Cc2ccc(OC(C)=O)c(OC)c2)ccc1OC(C)=O
173 to 175 °C | Cc1nc2c(N)nc3c(c2n1CCOCCS(C)(=O)=O)CCCC3
297 to 299 °C | Cc1ccc(NC(=O)c2ccc(C#N)cc2)cc1NC(=O)c1ccc(O)cc1
69 to 71 °C | CCNc1ccc2c(c1)CNC2

melting point | SMILES
35 to 36.5 °C | Nc1ccc(S)c(C(F)(F)F)c1
75 to 76 °C | O=C(CCc1cccc(Oc2ccccc2)c1)c1ccc[nH]1
166 to 168 °C | CNc1cccc(S(=O)(=O)NC(=O)Nc2nc(OC)cc(OC)n2)n1
240 to 242 °C | Cc1nc(N)c2nc(C)n(NC3CCOCC3)c2c1C
176 to 178 °C | O=C(Nc1ccc(-n2nc(C(F)(F)F)cc2C(F)(F)F)cc1)C1CC1c1ccccc1 (stereo not given)
184 to 186 °C | CN(Cc1cccc2c1C(=O)N(C1CCC(=O)NC1=O)C2=O)C(=O)c1ccco1 (stereo not given)
221 to 224 °C | O=C1Cc2ccccc2N1Nc1ccncc1
93 to 94 °C | CCOC(=O)/C(=C\Nc1cc(C)cc(C)c1)c1ccc(OC)cc1
160 to 165 °C | O=C1CCCc2cc3c(cc21)sc1ccccc13
> 280 °C | COc1cc(Nc2nc3ccnc(-c4ccc(S(N)(=O)=O)cc4)c3o2)cc(OC)c1OC
215 to 218 °C | O=C(N[C@H]1CCN(C(=O)c2cc(C(F)(F)F)cc(C(F)(F)F)c2)[C@H](Cc2ccc(Cl)cc2)C1)c1cc(=O)c2cc(F)ccc2o1
66 to 67 °C | COc1ccc(Cl)cc1C(=O)NCCOc1ccc(CC2SC(=O)NC2=O)cc1 (stereo not given)
145 to 147 °C | Fc1ccccc1NC(=S)Nc1ncccc1OCc1c(F)cccc1Cl
97.5 to 98.5 °C | COc1ncc(-c2ccccc2)c(C(=O)N(C)Cc2cc(C(F)(F)F)cc(C(F)(F)F)c2)n1
40 to 42 °C | Cc1cc(C2=CC(C)(C)CC(C)(C)C2CO)ccc1F (stereo not given)
76 to 79 °C | CCOC(=O)c1cccc(Oc2ncccc2OCCCc2ccncc2O)c1
146 to 147 °C | COCc1c(C(O)c2ccccc2)ncc2c1c1cc(OCc3ccccc3)ccc1n2S(=O)(=O)c1ccc(C)cc1 (stereo not given)
238 °C | CC(C)(C)OC(=O)NCc1nc2c(C(F)(F)F)cccc2c(O)c1C(=O)Nc1nccs1
93 to 95.5 °C | CCOC(=O)c1cccc2c1CCC2C#N (stereo not given)
60 °C | O=[N+]([O-])c1ccc(OCCCl)cc1
204 to 205 °C | Cc1nnc(-c2ccc3occ(-c4cccc(C#N)c4)c3c2)o1

SMILES | melting point
O=C(Nc1ccc(O)cc1)OCC(Cl)(Cl)Cl | 134 °C
O=C1CSC(c2cccc(Cl)c2)c2cc(C(=O)c3ccc(Cl)cc3)ccc2N1 (stereo not given) | 222 °C
O=C1NCCCCC1(Br)Br | 156 to 159 °C
CCN(CC)CCN=C=S | 83 to 83.5 °C
CC(C)CCCOC1CCC2C3C(=O)C=C4CC(O[Si](C)(C)C(C)(C)C)CCC4(C)C3CCC12C (stereo not given) | 143 to 145 °C
CC1(C)[C@H](C(=O)OCc2cnc(Cc3ccccc3)s2)[C@@H]1C=C(Br)Br | 66 °C
NCCc1coc2ccc3c(c12)CCCO3 | 110 °C

Source: a melting point compilation (Tetko et al.; mined from patent text by program, amines drawn as free bases though some values may be those of a salt)
